Laboratory results: ChEMBL document CHEMBL5252558, “Noonindoles G-L: Indole Diterpene Glycosides from the Australian Marine-Derived Fungus Aspergillus noonimiae CMB-M0339” (J Nat Prod, 2023)
Activity calls are given as the source filed them. No cut-off for these calls is given here.

How the values were obtained:
[1] = tested on: Bacillus subtilis; experiment: Antibacterial activity against Bacillus subtilis ATCC 6633 assessed as inhibition of bacterial growth incubated for 24 hrs by spectrophotometric analysis; assay type: functional, organism-based
[2] = tested on: SW-620; experiment: Cytotoxicity against human SW620 cells assessed as inhibition of cell growth incubated for 68 hrs by MTT assay; assay type: functional, cell-based; conditions: SW-620, 68 h
[3] = tested on: Escherichia coli; experiment: Antibacterial activity against Escherichia coli ATCC 11775 assessed as inhibition of bacterial growth incubated for 24 hrs by spectrophotometric analysis; assay type: functional, organism-based
[4] = tested on: NCI-H460; experiment: Cytotoxicity against human NCI-H460 cells assessed as inhibition of cell growth incubated for 68 hrs by MTT assay; assay type: functional, cell-based; conditions: NCI-H460, 68 h
[5] = tested on: Staphylococcus aureus; experiment: Antibacterial activity against Staphylococcus aureus ATCC 25923 assessed as inhibition of bacterial growth incubated for 24 hrs by spectrophotometric analysis; assay type: functional, organism-based
[6] = tested on: Candida albicans; experiment: Antifungal activity against Candida albicans ATCC 10231 assessed as inhibition of fungal growth incubated for 48 hrs by spectrophotometric analysis; assay type: functional, organism-based

## CC(C)(O[C@@H]1O[C@H](CO)[C@@H](O)[C@H](O)[C@@H]1O)[C@@H]1CC[C@]2(CO)[C@H](CC[C@@]3(C)[C@H]2CC[C@H]2Cc4c([nH]c5ccccc45)[C@@]23C)O1
[1]
  Activity: inactive
[2]
  IC50: > 30 µM
[3]
  Activity: inactive
[4]
  IC50: > 30 µM
[5]
  Activity: inactive
[6]
  Activity: inactive

## CC(C)(O[C@@H]1O[C@H](CO)[C@@H](O)[C@H](O)[C@@H]1O)[C@H]1O[C@H]2CC[C@@]3(C)[C@@H](CC[C@H]4Cc5c([nH]c6ccccc56)[C@@]43C)C2=C[C@H]1O
[1]
  Activity: inactive
[2]
  IC50: > 30 µM
[3]
  Activity: inactive
[4]
  IC50: > 30 µM
[5]
  Activity: inactive
[6]
  Activity: inactive

## CC(C)(O[C@@H]1O[C@H](CO)[C@@H](O)[C@H](O)[C@@H]1O)[C@H]1O[C@H]2CC[C@@]3(C)[C@@H](CC[C@H]4Cc5c([nH]c6ccccc56)[C@@]43C)C2=CC1=O
[1]
  Activity: inactive
[2]
  IC50: > 30 µM
[3]
  Activity: inactive
[4]
  IC50: > 30 µM
[5]
  Activity: inactive
[6]
  Activity: inactive

## CC(C)(O[C@@H]1O[C@H](CO)[C@@H](O)[C@H](O)[C@@H]1O)[C@H]1O[C@@]2(O)CC[C@@]3(C)[C@@H](CC[C@H]4Cc5c([nH]c6ccccc56)[C@@]43C)C2=CC1=O
[1]
  Activity: inactive
[2]
  IC50: > 30 µM
[3]
  Activity: inactive
[4]
  IC50: > 30 µM
[5]
  Activity: inactive
[6]
  Activity: inactive

## CC(C)(O[C@@H]1O[C@H](CO)[C@@H](O)[C@H](O)[C@@H]1O)[C@@H]1CC[C@]2(C)[C@H](CC[C@@]3(C)[C@H]2CC[C@H]2Cc4c([nH]c5ccccc45)[C@@]23C)O1
[1]
  Activity: inactive
[2]
  IC50: > 30 µM
[3]
  Activity: inactive
[4]
  IC50: > 30 µM
[5]
  Activity: inactive
[6]
  Activity: inactive

## CC(C)(O[C@@H]1O[C@H](CO)[C@@H](O)[C@H](O)[C@@H]1O)[C@@H]1CC[C@]2(C=O)[C@H](CC[C@@]3(C)[C@H]2CC[C@H]2Cc4c([nH]c5ccccc45)[C@@]23C)O1
[1]
  Activity: inactive
[2]
  IC50: > 30 µM
[3]
  Activity: inactive
[4]
  IC50: > 30 µM
[5]
  Activity: inactive
[6]
  Activity: inactive
